Measured values: ChEMBL document CHEMBL1201862, “PubChem BioAssay data set” (2004)
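1) Cells in 96-well plates. 2) Compound, 48 h, 5 concentrations. 3) Linear interpolation between surrounding doses. 4) Unreached endpoint = highest concentration. GI50: concentration for 50% inhibition of growth.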 Active and inactive are the calls of the source. Cut-off read from the data, not from the text of the source: active = GI50 up to about 1.1 µM and inactive = higher.

Assays:
Assay in all cases: inhibition of tumour cell growth, NCI panel, 48 h
[1] = test system: SK-MEL-5
[2] = test system: CCRF-CEM
[3] = test system: NCI-H226
[4] = test system: HOP-92
[5] = test system: A498
[6] = test system: 786-0
[7] = test system: SN12C
[8] = test system: SR
[9] = test system: UACC-62
[10] = test system: T47D
[11] = test system: EKVX
[12] = test system: OVCAR-5
[13] = test system: SW-620
[14] = test system: ACHN
[15] = test system: NCI-H460
[16] = test system: IGROV-1
[17] = test system: NCI-H23
[18] = test system: SK-OV-3
[19] = test system: M14
[20] = test system: Malme-3M

Measured: GI50

CC(=O)OC(CN1CCN(c2ccccn2)CC1)Cn1sc2nc(C)cc(C)c2c1=O (stereo not given)
inactive: [1] 13.2 µM | [2] 5.78 µM | [3] > 100 µM | [4] 48.3 µM | [5] 18.1 µM | [6] 14.9 µM | [7] 18.9 µM | [8] 4.61 µM | [9] 16.4 µM | [10] 28 µM | [11] 17.3 µM | [12] 17.5 µM | [13] 26.4 µM | [14] 16.4 µM | [15] 18.5 µM | [16] 18.2 µM | [17] 20.8 µM | [18] 17.9 µM | [19] 16.5 µM | [20] 18.6 µM

CO/[N+]([O-])=C\C(=O)N/C=C/C(=O)O
inactive: [1] > 100 µM | [2] > 100 µM | [3] > 100 µM | [4] > 100 µM | [5] > 100 µM | [6] > 100 µM | [7] > 100 µM | [8] > 100 µM | [9] > 100 µM | [10] > 100 µM | [11] > 100 µM | [12] > 100 µM | [13] > 100 µM | [14] > 100 µM | [15] > 100 µM | [16] > 100 µM | [17] > 100 µM | [18] > 100 µM | [19] > 100 µM | [20] > 100 µM

CN1C(=O)CC2(C)c3cc(O)ccc3N(C)C12 (stereo not given)
inactive: [1] 22.5 µM | [2] 13.2 µM | [3] 40.6 µM | [4] 56.9 µM | [5] 43 µM | [6] 15 µM | [7] 15.5 µM | [8] 18.5 µM | [9] 20.1 µM | [10] 31.8 µM | [11] 37.8 µM | [12] 42.5 µM | [13] 20 µM | [14] 63.2 µM | [15] 50.9 µM | [16] 46.6 µM | [17] 42.3 µM | [18] > 95.3 µM | [19] 27.2 µM | [20] 54.5 µM
